Test results taken from ChEMBL document CHEMBL4270495, “Oleanane-, ursane-, and quinone methide friedelane-type triterpenoid derivatives: Recent advances in cancer treatment” (Eur J Med Chem, 2017).

Experiments:
CT26 = test: Cytotoxicity in mouse CT26 cells assessed as reduction in cell viability incubated for 96 hrs by SRB assay; format: functional, cell-based; conditions: CT26, 96 h
4T1 = test: Cytotoxicity in mouse 4T1 cells assessed as reduction in cell viability incubated for 96 hrs by SRB assay; format: functional, cell-based; conditions: 4T1, 96 h
MDA-MB-231 [1] = test: Cytotoxicity in human MDA-MB-231 cells assessed as reduction in cell viability incubated for 96 hrs by SRB assay; format: functional, cell-based; conditions: MDA-MB-231, 96 h
HCT-116 = test: Cytotoxicity in human HCT116 cells assessed as reduction in cell viability incubated for 96 hrs by SRB assay; format: functional, cell-based; conditions: HCT-116, 96 h
HT-29 [2] = test: Cytotoxicity in human HT-29 cells assessed as reduction in cell viability incubated for 96 hrs by SRB assay; format: functional, cell-based; conditions: HT-29, 96 h
HCT-8 = test: Cytotoxicity in human HCT8 cells assessed as reduction in cell viability incubated for 96 hrs by SRB assay; format: functional, cell-based; conditions: HCT-8, 96 h
PC-3 = test: Cytotoxicity in human PC3 cells assessed as reduction in cell viability incubated for 96 hrs by SRB assay; format: functional, cell-based; conditions: PC-3, 96 h
DU-145 = test: Cytotoxicity in human DU145 cells assessed as reduction in cell viability incubated for 96 hrs by SRB assay; format: functional, cell-based; conditions: DU-145, 96 h
MCF7 = test: Cytotoxicity in human MCF7 cells assessed as reduction in cell viability incubated for 48 hrs by SRB assay; format: functional, cell-based; conditions: MCF7, 48 h
MDA-MB-231 [3] = test: Cytotoxicity in human MDA-MB-231 cells assessed as reduction in cell viability incubated for 48 hrs by SRB assay; format: functional; conditions: MDA-MB-231, 48 h
HeLa [4] = test: Cytotoxicity in human HeLa cells assessed as reduction in cell viability incubated for 24 hrs by MTT assay; format: functional, cell-based
[5] = Cytotoxicity in human HELF cells assessed as reduction in cell viability incubated for 24 hrs by MTT assay; format: cell-based
HepG2 = test: Cytotoxicity in human HepG2 cells assessed as reduction in cell viability incubated for 24 hrs by MTT assay; format: functional, cell-based; conditions: HepG2, 24 h
Bel-7402 = test: Cytotoxicity in human Bel7402 cells assessed as reduction in cell viability incubated for 72 hrs by MTT assay; format: functional, cell-based; conditions: Bel-7402, 72 h
HT-29 [6] = test: Cytotoxicity in human HT-29 cells assessed as reduction in cell viability incubated for 72 hrs by MTT assay; format: functional, cell-based; conditions: HT-29, 72 h
BGC-823 = test: Cytotoxicity in human BGC823 cells assessed as reduction in cell viability incubated for 72 hrs by MTT assay; format: functional, cell-based; conditions: BGC-823, 72 h
HeLa [7] = test: Cytotoxicity in human HeLa cells assessed as reduction in cell viability incubated for 72 hrs by MTT assay; format: functional, cell-based

| SMILES | IC50 (CT26) [µM] | IC50 (4T1) [µM] | IC50 (MDA-MB-231 [1]) [µM] | IC50 (HCT-116) [µM] | IC50 (HT-29 [2]) [µM] | IC50 (HCT-8) [µM] | IC50 (PC-3) [µM] | IC50 (DU-145) [µM] | also measured |
| --- | --- | --- | --- | --- | --- | --- | --- | --- | --- |
| COC(=O)[C@@]1(C)CC[C@]2(C)CC[C@]3(C)C(=CC(=O)[C@@H]4[C@@]5(C)Cc6cn(S(C)(=O)=O)nc6C(C)(C)[C@@H]5CC[C@]43C)[C@H]2C1 | 15.2 | 12.5 | 28.6 | 8.7 | 18.5 | 24.5 | 18.9 | > 50 |  |
| CCOC(=O)c1[nH]nc2c1C[C@]1(C)[C@H]3C(=O)C=C4[C@H]5C[C@@](C)(C(=O)OCc6ccccc6)CC[C@]5(C)CC[C@@]4(C)[C@]3(C)CC[C@H]1C2(C)C | 17.7 | 5.75 | 16.6 | 8.2 | 12.5 | 9.96 | 19.6 | 23.8 |  |
| COC(=O)[C@@]1(C)CC[C@]2(C)CC[C@]3(C)C(=CC(=O)[C@@H]4[C@@]5(C)Cc6cn(C(=O)CCCC7CCNCC7)nc6C(C)(C)[C@@H]5CC[C@]43C)[C@H]2C1 | 8.08 | 6.09 | 9.76 | 6.99 | 8.76 | 11.7 | 5.19 | 7.54 |  |
| COC(=O)[C@@]1(C)CC[C@]2(C)CC[C@]3(C)C(=CC(=O)[C@@H]4[C@@]5(C)Cc6c(n[nH]c6C(F)(F)F)C(C)(C)[C@@H]5CC[C@]43C)[C@H]2C1 | 22 | 15.7 | 27.4 | 11.9 | 27.6 | 20 | 19.8 | 33.6 |  |
| C=C(C)[C@@H]1CC[C@]2(C(=O)O)CC[C@]3(C)[C@H](CC[C@@H]4[C@@]5(C)CC[C@H](O)C(C)(C)[C@@H]5CC[C@]43C)[C@@H]12 [BETULINIC ACID] |  |  |  |  |  |  |  |  | GI50 (MCF7): 11.3 µM; GI50 (MDA-MB-231 [3]): 22.9 µM |
| C[C@H]1[C@H](C)CC[C@]2(C(=O)N3CCNCC3)CC[C@]3(C)C(=CC[C@@H]4[C@@]5(C)CC[C@H](O)C(C)(C)[C@@H]5CC[C@]43C)[C@H]12 |  |  |  |  |  |  |  |  | IC50 (HeLa [4]): 14.4 µM; IC50 [5]: 12.6 µM; IC50 (HepG2): 5.1 µM |
| Cc1nc(C)c(COC(=O)[C@]23CCC(C)(C)C[C@H]2C2=CC[C@@H]4[C@@]5(C)CC[C@H](O)C(C)(C)[C@@H]5CC[C@@]4(C)[C@]2(C)CC3)nc1C |  |  |  |  |  |  |  |  | IC50 (Bel-7402): 6.36 µM; IC50 (HT-29 [6]): 29.8 µM; IC50 (BGC-823): > 30 µM; IC50 (HeLa [7]): 28.7 µM |
| C[C@H]1[C@H](C)CC[C@]2(C(=O)O)CC[C@]3(C)C(=CC[C@@H]4[C@@]5(C)C[C@@H](O)[C@H](O)C(C)(C)[C@@H]5CC[C@]43C)[C@H]12 [COROSOLIC ACID] |  |  |  |  |  |  |  |  | GI50 (MCF7): 18.5 µM; GI50 (MDA-MB-231 [3]): 15.3 µM |
| C[C@H]1[C@H](C)CC[C@]2(C(=O)OCCCn3cc(COC(=O)[C@]45CC[C@@H](C)[C@H](C)[C@@H]4C4=CC[C@@H]6[C@@]7(C)C[C@H](O)[C@H](O)C(C)(C)[C@@H]7CC[C@]6(C)[C@]4(C)CC5)cn3)CC[C@]3(C)C(=CC[C@@H]4[C@@]5(C)CC[C@H](O)C(C)(C)[C@@H]5CC[C@]43C)[C@H]12 |  |  |  |  |  |  |  |  | GI50 (MCF7): 12 µM; GI50 (MDA-MB-231 [3]): 4.7 µM |
| C[C@H]1[C@H](C)CC[C@]2(C(=O)OCCCn3cc(COC(=O)[C@]45CC[C@@H](C)[C@H](C)[C@@H]4C4=CC[C@@H]6[C@@]7(C)CC[C@H](O)[C@](C)(CO)[C@@H]7CC[C@]6(C)[C@]4(C)CC5)cn3)CC[C@]3(C)C(=CC[C@@H]4[C@@]5(C)CC[C@H](O)C(C)(C)[C@@H]5CC[C@]43C)[C@H]12 |  |  |  |  |  |  |  |  | GI50 (MCF7): 12.1 µM; GI50 (MDA-MB-231 [3]): 4.5 µM |
| CC(=O)O[C@H]1CC[C@]2(C)[C@H]3CC=C4[C@@H]5[C@@H](C)[C@H](C)CC[C@]5(C(=O)N5CCNCC5C)CC[C@@]4(C)[C@]3(C)CC[C@H]2C1(C)C (stereo partly specified) |  |  |  |  |  |  |  |  | IC50 (HeLa [4]): 6.3 µM; IC50 [5]: 14.8 µM; IC50 (HepG2): 5.2 µM |
| C[C@H]1[C@H](C)CC[C@]2(C(=O)OCCCn3cc(COC(=O)[C@]45CC[C@@H](C)[C@H](C)[C@@H]4C4=CC[C@@H]6[C@@]7(C)CC[C@H](O)C(C)(C)[C@@H]7CC[C@]6(C)[C@]4(C)CC5)cn3)CC[C@]3(C)C(=CC[C@@H]4[C@@]5(C)CC[C@H](O)C(C)(C)[C@@H]5CC[C@]43C)[C@H]12 |  |  |  |  |  |  |  |  | GI50 (MCF7): 12.7 µM; GI50 (MDA-MB-231 [3]): 3.8 µM |
| COC(=O)[C@@]1(C)CC[C@]2(C)CC[C@]3(C)C(=CC(=O)[C@@H]4[C@@]5(C)Cc6cn(OC(C)=O)nc6C(C)(C)[C@@H]5CC[C@]43C)[C@H]2C1 | 33 | 20.1 | 32.3 | 14.1 | 31 | 29.2 | 25.4 | 36.7 |  |
| COC(=O)[C@@]1(C)CC[C@]2(C)CC[C@]3(C)C(=CC(=O)[C@@H]4[C@@]5(C)Cc6cn(C(=O)CC7CCNCC7)nc6C(C)(C)[C@@H]5CC[C@]43C)[C@H]2C1 | 9.87 | 5.8 | 10.1 | 12.1 | 12.1 | 8.98 | 11.7 | 13.3 |  |
| CC(=O)O[C@H]1CC[C@]2(C)[C@H]3CC=C4[C@@H]5[C@@H](C)[C@H](C)CC[C@]5(C(=O)NCCCCCCCCN)CC[C@@]4(C)[C@]3(C)CC[C@H]2C1(C)C |  |  |  |  |  |  |  |  | IC50 (HeLa [4]): 8.6 µM; IC50 [5]: 36.1 µM; IC50 (HepG2): 17.3 µM |
| COC(=O)[C@@]1(C)CC[C@]2(C)CC[C@]3(C)C(=CC(=O)[C@@H]4[C@@]5(C)Cc6c[nH]nc6C(C)(C)[C@@H]5CC[C@]43C)[C@H]2C1 | 26.1 | 14.7 | 33.2 | 13.2 | 32 | 31.5 | 26.5 | 30.3 |  |
| CC1(C)c2n[nH]cc2C[C@]2(C)[C@H]3C(=O)C=C4[C@H]5C[C@@](C)(C(=O)OCc6ccccc6)CC[C@]5(C)CC[C@@]4(C)[C@]3(C)CC[C@@H]12 | 19.8 | 6.32 | 18.1 | 7.49 | 15.2 | 13.3 | 12.3 | 19 |  |
| C[C@H]1[C@H](C)CC[C@]2(C(=O)NCCCCCCCCN)CC[C@]3(C)C(=CC[C@@H]4[C@@]5(C)CC[C@H](O)C(C)(C)[C@@H]5CC[C@]43C)[C@H]12 |  |  |  |  |  |  |  |  | IC50 (HeLa [4]): 16.9 µM; IC50 [5]: 39.4 µM; IC50 (HepG2): 26.7 µM |
| COC(=O)[C@@]1(C)CC[C@]2(C)CC[C@]3(C)C(=CC(=O)[C@@H]4[C@@]5(C)Cc6cn(C(=O)C7CCNCC7)nc6C(C)(C)[C@@H]5CC[C@]43C)[C@H]2C1 | 21.4 | 5.34 | 19.2 | 23.2 | 25.2 | 22.3 | 22.4 | 20.8 |  |
| COC(=O)[C@@]1(C)CC[C@]2(C)CC[C@]3(C)C(=CC(=O)[C@@H]4[C@@]5(C)Cc6cn(C(=O)C7CCCNC7)nc6C(C)(C)[C@@H]5CC[C@]43C)[C@H]2C1 (stereo partly specified) | 23.7 | 9.68 | 24 | 22 | 21.8 | 23.8 | 23.1 | 21.9 |  |
| C[C@H]1[C@H](C)CC[C@]2(C(=O)OCCCn3cc(COC(=O)[C@]45CC[C@@H](C)[C@H](C)[C@@H]4C4=CC[C@@H]6[C@@]7(C)C[C@H](O)[C@H](O)[C@](C)(CO)[C@@H]7CC[C@]6(C)[C@]4(C)CC5)cn3)CC[C@]3(C)C(=CC[C@@H]4[C@@]5(C)CC[C@H](O)C(C)(C)[C@@H]5CC[C@]43C)[C@H]12 |  |  |  |  |  |  |  |  | GI50 (MCF7): 12.8 µM; GI50 (MDA-MB-231 [3]): 7.4 µM |
| C=C(C)[C@@H]1CC[C@]2(C(=O)OCc3cnn(CCCOC(=O)[C@]45CC[C@@H](C)[C@H](C)[C@H]4C4=CC[C@@H]6[C@@]7(C)CC[C@H](O)C(C)(C)[C@@H]7CC[C@@]6(C)[C@]4(C)CC5)c3)CC[C@]3(C)[C@H](CC[C@@H]4[C@@]5(C)CC[C@H](O)C(C)(C)[C@@H]5CC[C@]43C)[C@@H]12 |  |  |  |  |  |  |  |  | GI50 (MCF7): 14.4 µM; GI50 (MDA-MB-231 [3]): 1.4 µM |
| COC(=O)[C@@]1(C)CC[C@]2(C)CC[C@]3(C)C(=CC(=O)[C@@H]4[C@@]5(C)Cc6cn(C(=O)CCC7CCNCC7)nc6C(C)(C)[C@@H]5CC[C@]43C)[C@H]2C1 | 13 | 5.77 | 9.56 | 6.36 | 12.5 | 13.6 | 12 | 13.9 |  |
| CC(=O)O[C@H]1CC[C@]2(C)[C@H]3CC=C4[C@@H]5[C@@H](C)[C@H](C)CC[C@]5(C(=O)N5CCNCC5)CC[C@@]4(C)[C@]3(C)CC[C@H]2C1(C)C |  |  |  |  |  |  |  |  | IC50 (HeLa [4]): 7 µM; IC50 [5]: 9.1 µM; IC50 (HepG2): 4.8 µM |
